Patent publication US10213451B2, “Methods and compounds for modulating the secretion or expression of adhesion proteins or angiopoietins of cells” (PACIFIC ARROW LIMITED, priority 2004, dated 2019)
Converted amounts (≈) assume the structure as drawn.

How the values were obtained:
ES2(ovarian) cells = assay: MTT assay ES2; type: cell-based, human; settings: Homo sapiens, ES-2, ES2 cells; read-out: IC50
[1] = tested on: (bladder)TB9 cells / HTB-9; assay: MTT assay bladder cells; type: cell-based, human; settings: Homo sapiens; (bladder)TB9 cells; read-out: IC50
Protocol: (§1) Cells. Human cancer cell lines were obtained from American Type Culture Collection: HTB-9 (bladder), HeLa-S3 (cervix), DU145 (prostate), H460 (lung), MCF-7 (breast), K562 (leukocytes), HCT116 (colon), HepG2 (liver), U2OS (bone), T98G (brain), SK-MEL-5 (Skin) and OVCAR-3 (ovary). The cells were grown in following culture media: HeLa-53, DU145, MCF-7, Hep-G2 and T98G are in MEN (Earle's salts); HTB-9, H460, K562 and OVCAR-3 in RPMI-1640; HCT-116 and U2OS in McCoy-5A. They are supplemented with 10% fetal calf serum, glutamine and antibiotics, and incubated in an incubator with 5% CO2 humidified at 37° C.
(§2) MTT Assay. The procedure for MTT assay followed the method described by Carmichael et al. (1987) with modifications. The cells were seeded into a 96-well plate at concentration of 10,000/well for HTB-9, HeLa, H460, HCT116, T98G and OVCAR-3), 15,000/well for DU145, MCF-7, HepG2 and U2OS), and 40,000/well for K562 for 24 hours before drug-treatment. The cells were then exposed to the drugs for 48 hours (72 hours for HepG2 and U2OS, and 96 hours for MCF-7). After the drug-treatment, MTT (0.5 mg/mL) was added to cultures and incubated for an hour. The formazan (product of the reduction of tetrazolium by viable cells) formed and was dissolved with DMSO and the O.D. at 490 nm, and was measured by an ELISA reader. The MTT level of the cells before drug-treatment was also measured (T0). The % cell-growth (% G) is calculated as: % G=(TD−T0/TC−T0)×100(1), where TC or TD represents O.D. readings of control or drug-treated cells. When T0>TD, then the cytotoxicity (LC) expressed as % of the control is calculated as: % LC=(TD−T0/T0)×100(2).

(lung)H460 cells = assay: MTT assay H460; type: cell-based; settings: Homo sapiens, NCI-H460
Protocol: as §1
(§3) MTT Assay. The procedure for MTT assay followed the method described by Carmichael et al. (1987) with modifications. […] The formazan (product of the reduction of tetrazolium by viable cells) formed and was dissolved with DMSO and the O.D. at 490 nm, and was measured by an ELISA reader. The MTT level of the cells before drug-treatment was also measured (T0). The % cell-growth (% G) is calculated as: % G=(TD−T0/TC−T0)×100(1), where TC or TD represents O.D. readings of control or drug-treated cells. When T0>TD, then the cytotoxicity (LC) expressed as % of the control is calculated as: % LC=(TD−T0/T0)×100(2).

(Prostate) DU145 = assay: MTT assay DU145; type: cell-based, human; settings: Homo sapiens, DU-145, read-out: IC50
Protocol: as §1, §3

(Liver) HepG2 = assay: MTT assay HepG2; type: cell-based, human; settings: Homo sapiens, read-out: IC50
Protocol: as §1, §3

(brain) T98G = assay: MTT assay T98G; type: cell-based; settings: Homo sapiens
Protocol: as §1, §3

(Skin) SK-MELS = assay: MTT assay SK-MEL-5; type: cell-based, human; settings: Homo sapiens, SK-MEL-5, read-out: IC50
Protocol: as §1, §3

(Breast)MCF7 = assay: MTT assay MCF7; type: cell-based, human; settings: Homo sapiens, read-out: IC50
Protocol: as §1, §3

[2] = tested on: Fibronectin secretion from ES2 cells; assay: Fibronectin secretion (Western blot), ES2 cells; type: cell-based, human; settings: for inhibition at 10 µg/mL: Homo sapiens, ES-2, ES2 cells, 10 ug/ml; for % inhibition of Fibronectin secretion: ES2 cells, 80 ug/ml
Protocol: Inhibition of Fibronectin secretion is physiological and the determination of its quantity is based on the following criteria: • 1. Fibronectin is secreted from viable cells. Only cell with over 85% viable cells after drug-treatment are employed in these experiments. The viable cells were determined by MTT assay. • 2. For comparison, the immuno-band intensity from each samples are normalized with cell mass. The cell mass was determined by the MTT assay and is assigned as a MTT unit for each cell sample.
Cells: ES2 cells were grew in T-25 flask with RPMI 1640 medium over night before drug-treatment. Drug-treatment: cells cultures were replaced with fresh RPMI medium with Xanifolia-Y (10 ug/ml final concentration) or DMSO (as control) at 0 hour. At 1, 2, 4, 8 and 24 hour, aliquot of culture medium was taken out for Fibronectin determination. Fibronectin was determined by Western blot with monoclonal antibody (SIGMA) specific to human Fibronectin only.
Drug-treatment: cells cultures were replaced with fresh RPMI medium containing Xanifolia-Y (10 ug/ml final concentration) or DMSO (as control) at 0 hour. At 4 hours (A) or 8 hour (B), culture medium was replaced with fresh culture medium without drug. At 2, 4, 8 and 24 hour, aliquot of culture medium was taken out for Fibronectin determination. Fibronectin (FN) was determined by Western blot with monoclonal antibody (SIGMA) specific only to human Fibronectin.
Drug-treatment: cells cultures were replaced with fresh RPMI medium containing Xanifolia-Y (10 ug/ml final concentration) or DMSO (as control) at 0 hour. At 2, and 18 hour, aliquot of culture medium was taken out for Fibronectin determination (Western blot method). Cell viability at 18 hours was determined by MTT assay. Cultures were replaced with RPMI medium with MTT and incubated for an hour. The formation of formazan was dissolved in DMSO and OD at 570 nm was measured.
Cells and Drug-treatment: same as previous experiments. After 7 or 24 hours, aliquot of culture medium was taken out for Fibronectin determination (Western blot method). Cell viability at 24 hours was determined by MTT assay.
Cells: ES2 cells were grew in RPMI 1640 medium over night before drug-treatment. Drug-treatment: cells cultures were replaced with fresh RPMI medium containing DMSO (as control) [D]; Xanifolia-Y (10 ug/ml) [Y]; or Paclitaxel 10 or 50 ng/ml [T10, ro T50]. After 24 hours, aliquot of culture medium was taken out for Fibronectin determination (Western blot method). Cell viability at 24 hours was determined by MTT assay.
The amount of Fibronectin secreted by cells into medium was determined by Western blot assay. The amount of Fibronectin secreted per cells basis was determined by dividing the Western-band intensity with the MTT unit.
Western Blot: Spent culture medium (0.6 ml) was mixed with SDS sample buffer (0.2 ml), boiled for 3 minutes before loading to SDS gel. Samples (60 ul/lane) were applied to a 6% SDS gel and electrophoresis was conducted with 100 volts for 2 hours. Protein was transferred to a nitrocellulose paper electrophoretically (30 min at 100 volts). The Western blot was incubated with the first antibody (mouse anti-FN, specific to human FN, SIGMA F0916) and second antibody (Anti-mouse IgG AP conjugated, Promega S3721). The immunobands were developed with BCIP/NBT color development system (Promega S3771).

[3] = tested on: Fibronectin secretion from lung carcinoma cells (H460); assay: Fibronectin secretion (Western blot), H460 cells; type: cell-based, human; settings: Homo sapiens, NCI-H460, H460 cells
[4] = tested on: Fibronectin secretion from bladder carcinoma cells (HTB-9); assay: Fibronectin secretion (Western blot), HTB-9 cells; type: cell-based, human; settings: Homo sapiens, 10 ug/ml
[5] = tested on: Fibronectin secretion from liver HepG2 cells; assay: Fibronectin secretion (Western blot), HepG2 cells; type: cell-based, human; settings: for inhibition at 10 µg/mL: Homo sapiens, HepG2, HepG2 cells, 10 ug/ml
[6] = tested on: Fibronectin secretion from brain glioblastoma T98G cells; assay: Fibronectin secretion (Western blot), T98G cells; type: cell-based, human; settings: Homo sapiens, T98G
[7] = tested on: Fibronectin secretion from skin SK-Mel-5 cells; assay: Fibronectin secretion (Western blot), SK-MEL-5 cells; type: cell-based, human; settings: Homo sapiens
tumor growth = assay: MTT anticancer activity of Y, X and hydrolysis products (FIG. 4C); type: cell-based
Protocol: as §2
(A) Alkaline Hydrolysis of Xanifolia-Y: 20 mg of Xanifolia-Y was dissolved in 0.5 mL of 1M NaOH. The solution was incubated in an 80° C. water bath for 4 hours. It was cooled to room temperature before being neutralized with 0.5 mL 1 N HCl (adjusted pH to about 3). The mixture was extracted with 2 mL 1-butanol 3 times. The butanol fractions were collected and lyophilized. The hydrolyzed saponin was further purified with HPLC in a C-18 column eluted with 25% acetonitrile.
(B) Acid Hydrolysis of Xanifolia-Y: 15 mg Xanifolia-Y was dissolved in 1 mL of Methanol. 1 mL of 2N HCl was then added. The mixture was refluxed in an 80° C. water bath for 5 hours. The solution was then neutralized by adding 2 mL of 1N NaOH (to a final pH 3-4). The aglycone was then extracted with ethylacetate 3 mL×3. The extracts were collected and pooled. Further isolation of aglycone (sugar-removed Xanifolia-Y) was achieved by HPLC with isocratic elution of 80% acetonitrile.

human red blood cells = assay: Hemolytic activity; type: cell-based; settings: FIG. 3D
Protocol: Methods: • Human whole blood was obtained from the Houston Gulf Coast Blood Center. • Red blood cells were isolated by the following method: Human blood (in EDTA) was diluted 1:1 with PBS, underlay with 4 mL of Histopaque-1077 (SIGMA) and was centrifuged at 400 g for 30 min. • Red blood cells (RBC) were collected and washed three times with PBS. • 10% suspensions of RBC were prepared with PBS before use. • 50 μL of RBC suspension was added to 2 mL of saponins with different concentration. • The suspension was mixed by vortexing then left to sit at room temperature for 60 minutes. • The suspension was centrifuged at 3000 rpm for 5 min. Absorbance of the supernatant was measured at 540 nm.

K562 cells membrane = assay: EM study of membrane structure; type: cell-based, human; settings: 20 uM, 60 min
Description: Xanifolia-Y has a potent hemolytic activity in red blood cells (FIG. 27). To study the effect of Xanifolia-Y on membrane structure, the morphology of cell membrane treated with Xanifolia-Y was examined with EM. […] Solvent DMSO and AKOH-Y (a derivative of Xanifolia-Y without the angeloyl group and it has no activity) served as controls. Cells were negative stained with 1% UAc and subsequently examined with EM.

ovarian cancer cells = assay: MTT assay, growth of ovarian cancer cells (FIG. 3A, 3B); type: cell-based; settings: Homo sapiens, read-out: IC50, inhibiting growth of ovarian cancer cells
Protocol: as §1, §3

C/C=C(/C)C(=O)O[C@H]1[C@H](OC(=O)/C(C)=C\C)[C@@]23C(CC1(C)C)[C@]1(CCC4[C@@]5(C)CC[C@H](O)C(C)(C)C5CC[C@@]4(C)[C@]1(C)C[C@H]2O)O[C@@H]3O (stereo partly shown) [ACH-Mb5]
IC50 (ES2(ovarian) cells): 8 µg/mL (≈ 11.9 µM)
IC50 [1]: 5.7 µg/mL (≈ 8.5 µM)
IC50 ((lung)H460 cells): 6.5 µg/mL (≈ 9.69 µM)
IC50 ((Prostate) DU145): 6.4 µg/mL (≈ 9.54 µM)
IC50 ((Liver) HepG2): 4 µg/mL (≈ 5.96 µM)
IC50 ((brain) T98G): 6 µg/mL (≈ 8.94 µM)
IC50 ((Skin) SK-MELS): 22 µg/mL (≈ 32.8 µM)
IC50 ((Breast)MCF7): 13 µg/mL (≈ 19.4 µM)
inhibition at 10 µg/mL [2]: 30%
inhibition at 10 µg/mL ([3]; 10 ug/ml): 22%
inhibition at 10 µg/mL [4]: 30%
inhibition at 10 µg/mL [5]: 25%
inhibition at 10 µg/mL ([6]; 10 ug/ml): 35%
inhibition at 10 µg/mL ([7]; 10 ug/ml): 20%

CC1(C)CC2C3=CCC4[C@@]5(C)CC[C@H](O[C@@H]6OC(C(=O)O)[C@@H](O)[C@@H](O[C@@H]7O[C@@H](CO)[C@@H](O)C7O)C6O[C@@H]6OC(CO)[C@H](O)[C@@H](O)C6O)C(C)(C)C5CC[C@@]4(C)[C@]3(C)[C@@H](O)[C@@H](O)[C@@]2(CO)[C@@H](O)[C@@H]1O (stereo partly shown) [AKOH-Y]
anticancer activity after alkaline hydrolysis (tumor growth): lost anticancer activity
MTT activities of hydrolysed products of compound Y (tumor growth; FIG. 4C, 4D): lost MTT activities
anticancer activity (tumor growth; FIG. 4C, even at 120 μg/ml): completely abolishes its anticancer activity
anticancer activity (tumor growth; even at 120 ug/ml): completely abolishes its anticancer activity
hemolytic activity of hydrolysed products of compound Y (human red blood cells): destroyed the hemolytic activity
% inhibition of Fibronectin secretion [2]: no effect
% inhibition of Fibronectin secretion ([2]; listed as AKOH): no effect
inhibition effect on Fibronectin secretion ([5]; HepG2 cells, 80 ug/ml): Minimum or No effect
membrane morphology (EM): patches of pits (K562 cells membrane): not

C/C=C(/C)C(=O)O[C@H]1[C@H](OC(C)=O)C(C)(C)CC2C3=CCC4[C@@]5(C)CC[C@H](O[C@@H]6OC(C(=O)OCCCC)[C@@H](O)C(O[C@@H]7O[C@@H](CO)C(O)C7O)C6O[C@@H]6OC(CO)[C@H](O)C(O)C6O)C(C)(C)C5CC[C@@]4(C)[C@]3(C)C[C@@H](O)[C@]21CO (stereo partly drawn) [X, 3-O-{[β-D-galactopyranosyl (1→2)]-[α-L-arabinofuranosyl (1→3)]-β-D-glucuronopyranosidebutyl ester}-21-O-acetyl-22-O-angeloyl-3β,16α,21β,22α,28-pentahydroxyolean-12-ene]
IC50 (ovarian cancer cells): 30 µg/mL (≈ 26.3 µM)
IC50 (tumor growth; FIG. 4C, read-out: IC50, inhibits tumor growth / anticancer activity): 6 µg/mL (≈ 5.26 µM)
inhibition at 10 µg/mL [2]: 39%
inhibition at 20 µg/mL ([3]; 20 ug/ml): 37%
inhibition at 10 µg/mL [4]: 38%
inhibition at 10 µg/mL [5]: 42%
inhibition at 20 µg/mL ([6]; 20 ug/ml): 52%
inhibition at 20 µg/mL ([7]; 20 ug/ml): 15%
